The values below come from patent US9133262B2, “Somatostatin antagonists” (Ipsen Pharma S.A.S., priority 1996, dated 2015).

The structures appear in SMILES notation. Positions of bridges follow the written chain, without caps; N, C: chain ends. Non-standard residues stand in square brackets, D forms with d. Residues, ends and D or L forms follow the SMILES beside them. Phe(F5) = N[C@@H](Cc1c(F)c(F)c(F)c(F)c1F)C(=O)O; dDip = N[C@@H](C(=O)O)C(c1ccccc1)c1ccccc1; dPhe(4-Cl) = N[C@H](Cc1ccc(Cl)cc1)C(=O)O; Dip = N[C@H](C(=O)O)C(c1ccccc1)c1ccccc1; 2Nal = N[C@@H](Cc1ccc2ccccc2c1)C(=O)O; 2Pal = N[C@@H](Cc1ccccn1)C(=O)O; 3Pal = N[C@@H](Cc1cccnc1)C(=O)O

The assay relates to rat pituitary cells. Format: cell-based. The conditions noted are these: 3 h. The text has this:
Bioassay on the In Vitro Release of Growth Hormone
(a) Rat Pituitary Cell Dispersion
Pituitaries from adult Charles River CD male rats (Wilmington, Mass.) housed under controlled conditions were dispersed and cultured using aseptic technique by modification of previously described methods (Hoefer, M. T., et al., Mol. Cell. Endocrinol. 35:229 (1984); Ben-Jonathan, N., et al., Methods Enzymol. 103:249 (1983); and Heiman, M. L., et al., Endocrinology 116:410 (1985)). Pituitaries were removed from sacrificed rats, sectioned, and then placed into a siliconized, liquid scintillation vial containing 2 ml 0.2% trypsin (Worthington Biochemicals, Freehold, N.J.) in sterile-filtered Krebs-Ringer bicarbonate buffer supplemented with 1% bovine serum albumin, 14 mM glucose, modified Eagle medium (MEM) vitamin solution, and MEM amino acids (Gibco Laboratories, Grand Island, N.Y.) (KRBGA). All glassware was siliconized as described by Sayers, et al., Endocrinology 88:1063 (1971). The fragments were incubated in a water bath for 35 min at 37° C. with agitation. The vial contents then were poured into a scintillation vial containing 2 ml 0.1% DNase (Sigma Chemical Co., St. Louis, Mo.) in KRBGA and incubated for 2 min at 37° C. with agitation. After incubation, the tissue was decanted into a 15 ml centrifuge tube and allowed to settle. Medium was discarded, and pituitary sections were washed 3 times with 1 ml fresh-KRBGA. The cells were then dispersed in 2 ml 0.05% LBI (lima bean trypsin inhibitor, Worthington Biochemicals) by gently drawing the fragments into and expelling them out of a siliconized, fire polished Pasteur pipette. Dispersed cells were then filtered through a 630 μm diameter Nylon mesh (Tetko, Elmsford, N.Y.) into a fresh 15 ml centrifuge tube. An additional 2 ml of 0.05% LBI solution was used to rinse the first tube and was transferred to the second tube with filtering.
The dispersed cells were then further diluted with approximately 15 ml sterile-filtered Dulbecco's modified Eagle medium (GIBCO), which was supplemented with 2.5% fetal calf serum (GIBCO), 3% horse serum (GIBCO), 10% fresh rat serum (stored on ice for no longer than 1 hr) from the pituitary donors, 1% MEM non-essential amino acids (GIBCO), and gentamycin (10 ng/ml; Sigma) and nystatin (10,000 U/ml; GIBCO). The cells were poured into a 50 ml round-bottomed glass extraction flask with a large diameter opening and then randomly plated at a density of approximately 200,000 cells per well (Co-star cluster 24; Rochester Scientific Co., Rochester, N.Y.). The plated cells were maintained in the above Dulbecco's medium in a humidified atmosphere of 95% air and 5% CO2 at 37° C. for 4-5 days.
(c) Experimental Incubation and IC50 Determination
In preparation for a hormone challenge, the cells were washed 3 times with medium 199 (GIBCO) to remove old medium and floating cells. Each treatment well contained a total volume of 1 ml medium 199 containing 1% BSA (fraction V; Sigma) with treatments as described below. Each antagonist candidate was tested using a single 24-well cell culture plate. Each treatment was performed in triplicate. Each plate contained 8 treatment groups: one 1 nM growth hormone releasing factor (GRF) (1-29)NH2-stimulated control group; one 1 nM somatostatin-inhibited control group in the presence of 1 nM GRF(1-29)NH2; and 6 doses of a given antagonist in the presence of both 1 nM SRIF and 1 nM GRF per plate. After 3 hrs at 37° C. in a air/carbon dioxide atmosphere (95/5%), the medium was removed and stored at −20° C. until radioimmunoassayed for growth hormone content. IC50's of each antagonist versus 1 nM SRIF were calculated using a computer program (SigmaPlot, Jandel Scientific, San Rafael, Calif.) with the maximum response constrained to the value of the 1 nM GRF(1-29)NH2-stimulated control.

The molecule `CC(C)[C@@H]1NC(=O)[C@H](CCCCN)NC(=O)[C@@H](Cc2c[nH]c3ccccc23)NC(=O)[C@H](Cc2cccnc2)NC(=O)[C@H](NC(=O)[C@@H](N)Cc2c(F)c(F)c(F)c(F)c2F)CSSC[C@@H](C(=O)N[C@@H](Cc2c(F)c(F)c(F)c(F)c2F)C(N)=O)NC1=O` [Analog No. 16, H2—F5-Phe-D-Cys-Pal-D-Trp-Lys-Val-Cys-F5-Phe-NH2] (H-[Phe(F5)][dC][3Pal][dW]KVC[Phe(F5)]-NH2; disulfide 2-7) registered an IC50 of 820 nM.
Consider `CC(C)[C@@H]1NC(=O)[C@H](CCCCN)NC(=O)[C@@H](Cc2c[nH]c3ccccc23)NC(=O)[C@H](Cc2ccccn2)NC(=O)[C@H](NC(=O)[C@@H](N)Cc2c(F)c(F)c(F)c(F)c2F)CSSC[C@@H](C(=O)N[C@@H](Cc2c(F)c(F)c(F)c(F)c2F)C(N)=O)NC1=O` [Analog No. 17, H2—F5-Phe-D-Cys-2-Pal-D-Trp-Lys-Val-Cys-F5-Phe-NH2] (H-[Phe(F5)][dC][2Pal][dW]KVC[Phe(F5)]-NH2; disulfide 2-7), for which the midpoint of inhibition, the IC50, lay at 1000 nM.
In turn, `CC(C)[C@@H]1NC(=O)[C@H](CCCCN)NC(=O)[C@@H](Cc2c[nH]c3ccccc23)NC(=O)[C@H](Cc2cccnc2)NC(=O)[C@H](NC(=O)[C@H](N)C(c2ccccc2)c2ccccc2)CSSC[C@@H](C(=O)N[C@@H](Cc2ccc3ccccc3c2)C(N)=O)NC1=O` [Analog No. 18, H2-D-Dip-D-Cys-Pal-D-Trp-Lys-Val-Cys-β-Nal-NH2] (H-[dDip][dC][3Pal][dW]KVC[2Nal]-NH2; disulfide 2-7) came in with an IC50 of 380 nM.
For `CC(C)[C@@H]1NC(=O)[C@H](CCCCN)NC(=O)[C@@H](Cc2c[nH]c3ccccc23)NC(=O)[C@H](Cc2c[nH]cn2)NC(=O)[C@H](NC(=O)[C@@H](N)Cc2ccc3ccccc3c2)CSSC[C@@H](C(=O)N[C@@H](C(N)=O)C(c2ccccc2)c2ccccc2)NC1=O` [Analog No. 19, H2-β-Nal-D-Cys-His-D-Trp-Lys-Val-Cys-D-Dip-NH2] (H-[2Nal][dC]H[dW]KVC[dDip]-NH2; disulfide 2-7), inhibition was half-maximal at 110 nM (IC50).
For `CC(C)[C@@H]1NC(=O)[C@H](CCCCN)NC(=O)[C@@H](Cc2c[nH]c3ccccc23)NC(=O)[C@H](Cc2c[nH]cn2)NC(=O)[C@H](NC(=O)[C@@H](N)C(c2ccccc2)c2ccccc2)CSSC[C@@H](C(=O)N[C@@H](Cc2ccc3ccccc3c2)C(N)=O)NC1=O` [Analog No. 20, H2-Dip-D-Cys-His-D-Trp-Lys-Val-Cys-β-Nal-NH2] (H-[Dip][dC]H[dW]KVC[2Nal]-NH2; disulfide 2-7), the midpoint of inhibition, the IC50, lay at 120 nM.
As for `CC(C)[C@@H]1NC(=O)[C@H](CCCCN)NC(=O)[C@@H](Cc2c[nH]c3ccccc23)NC(=O)[C@H](Cc2c[nH]cn2)NC(=O)[C@H](NC(=O)[C@@H](N)C(c2ccccc2)c2ccccc2)CSSC[C@@H](C(=O)N[C@H](C(N)=O)C(c2ccccc2)c2ccccc2)NC1=O` [Analog No. 21, H2-Dip-D-Cys-His-D-Trp-Lys-Val-Cys-Dip-NH2] (H-[Dip][dC]H[dW]KVC[Dip]-NH2; disulfide 2-7), the IC50 was determined as 970 nM.
`CC(C)[C@@H]1NC(=O)[C@H](CCCCN)NC(=O)[C@@H](Cc2c[nH]c3ccccc23)NC(=O)[C@H](Cc2c[nH]cn2)NC(=O)[C@H](NC(=O)[C@@H](N)Cc2ccc3ccccc3c2)CSSC[C@@H](C(=O)N[C@@H](Cc2ccc3ccccc3c2)C(N)=O)NC1=O` [Analog No. 22, H2-β-Nal-D-Cys-His-D-Trp-Lys-Val-Cys-β-Nal-NH2] (H-[2Nal][dC]H[dW]KVC[2Nal]-NH2; disulfide 2-7) displayed a concentration for half-maximal inhibition (IC50) of 66 nM.
`CC(C)[C@H](NC(=O)[C@H](CCCCN)NC(=O)[C@@H](Cc1c[nH]c2ccccc12)NC(=O)[C@H](Cc1ccc(O)cc1)NC(=O)[C@@H](Cc1ccc(Cl)cc1)NC(=O)[C@@H](N)Cc1ccc2ccccc2c1)C(=O)N[C@@H](Cc1ccccc1)C(=O)N[C@@H](Cc1ccc2ccccc2c1)C(N)=O` [Analog No. 23, H2-β-Nal-D-Cpa-Tyr-D-Trp-Lys-Val-Phe-β-Nal-NH2] (H-[2Nal][dPhe(4-Cl)]Y[dW]KVF[2Nal]-NH2) gave a 50% inhibitory concentration (IC50) of 910 nM.

As usually defined, the IC50 is the concentration needed to halve the response being measured. Low values mean greater potency in that assay, high ones weaker potency in that assay.
